The target in the test is T1, KCNQ2/3 channels (Homo sapiens, UniProt O43525+O43526).
T1 construct: expressed in transfected cells
The experiment in a line: Fluorescence assay using a voltage sensitive dye (fluorimetry). The format is cell-based. The note with it: CHO-K1 cells expressing KCNQ2/3 channels; for EC50: agonistic activity; for Emax / Fluorimetry % efficacy (retigabine 50 μM = 100%): retigabine 50 μM = 100%; for Emax: read-out: Fluorimetry % efficacy (retigabine 50 μM = 100%). In outline: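 Agonist EC50s come from the F2 vs F1 fluorescence comparison, F2 taken at the peak after KCl depolarisation (92 mM final) and F1 after 30 min compound exposure at room temperature. Assay uses KCNQ2/3-expressing CHO-K1 cells stained 45 min with a red voltage-sensitive dye in pH 7.4 ES buffer.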

Molecules are shown by their SMILES.

Regarding `COC(=O)c1cccc(CNC(=O)c2cccnc2SCCCc2ccc(F)cc2)c1` [compound 129, 3-[[[2-[3-(4-Fluorophenyl)-propylsulfanyl]-pyridine-3-carbonyl]amino]-methyl]-benzoic acid methyl ester], the 50% effective concentration (EC50) was determined as 325 nM and the Emax came out at 122%.
Turning to `COc1ccccc1CCCNC(=O)c1cccnc1SCCCc1ccc(F)cc1` [compound 130, 2-[3-(4-Fluorophenyl)-propylsulfanyl]-N-[3-(2-methoxyphenyl)-propyl]-pyridine-3-carboxylic acid amide], the EC50 was determined as 465 nM and the Emax stood at 164%.
Take `O=C(O)c1cccc(CNC(=O)c2cccnc2SCCCc2ccc(F)cc2)c1` [compound 131]: the “Fluorimetry % efficacy (retigabine 50 μM = 100%)” value (“Fluorimetry % efficacy” for short) was 25%.
`CC(CCc1cccc(C(F)(F)F)c1)Sc1ncccc1C(=O)NCc1ccc(F)cc1` (stereo not drawn) [compound 132, N-[(4-Fluorophenyl)-methyl]-2-[[1-methyl-3-[3-(trifluoromethyl)phenyl]-propyl]sulfanyl]-pyridine-3-carboxylic acid amide]: the EC50 was found to be 82 nM and the Emax was 120%.
Turning to `O=C(NCCCn1cccn1)c1cccnc1SCCCc1ccc(F)cc1` [compound 135, 2-[3-(4-Fluorophenyl)-propylsulfanyl]-N-[3-(1H-pyrazol-1-yl)-propyl]-pyridine-3-carboxylic acid amide], it took 3140 nM to reach a half-maximal effect (EC50) and the Emax is 154%.
For `O=C(NCc1ccc2ccccc2c1)c1cccnc1SCCCc1ccc(F)cc1` [compound 136, 2-[3-(4-Fluorophenyl)-propylsulfanyl]-N-(naphthalen-2-yl-methyl)-pyridine-3-carboxylic acid amide], the Emax is 28%.
`O=C(NCc1ccc2c(c1)OCCO2)c1cccnc1SCCCc1ccc(F)cc1` [compound 137, N-(2,3-Dihydro-[1,4]benzodioxin-6-yl-methyl)-2-[3-(4-fluorophenyl)-propylsulfanyl]-pyridine-3-carboxylic acid amide]: the half-maximal effective concentration (EC50) came to 366 nM and the Emax came out at 93%.
With `O=C(NCc1cccc(N2CCOCC2)c1)c1cccnc1SCCCc1ccc(F)cc1` [compound 138, 2-[3-(4-Fluorophenyl)-propylsulfanyl]-N-[(3-morpholin-4-yl-phenyl)-methyl]-pyridine-3-carboxylic acid amide], the EC50 was determined as 417 nM and the Emax amounted to 92%.
For `O=C(NCc1ccc2c(c1)OCC2)c1cccnc1SCCCc1ccc(F)cc1` [compound 139, N-(2,3-Dihydro-benzofuran-6-yl-methyl)-2-[3-(4-fluorophenyl)-propylsulfanyl]-pyridine-3-carboxylic acid amide], the EC50 worked out at 101 nM and the Emax was determined as 81%.
In the case of `O=C(NCc1cccc(-n2cccn2)c1)c1cccnc1SCCCc1ccc(F)cc1` [compound 140, 2-[3-(4-Fluorophenyl)-propylsulfanyl]-N-[[3-(1H-pyrazol-1-yl)-phenyl]-methyl]-pyridine-3-carboxylic acid amide], the EC50 was 312 nM and the Emax came to 88%.
As for `O=C(NCCCn1ccnn1)c1cccnc1SCCCc1ccc(F)cc1` [compound 141, 2-[3-(4-Fluorophenyl)-propylsulfanyl]-N-[3-(1H-[1,2,3]triazol-1-yl)-propyl]-pyridine-3-carboxylic acid amide], the EC50 was 12800 nM and the Emax was 86%.
Consider `O=C(NCC1C2CCC1CC2)c1cccnc1SCCCc1ccc(F)cc1` (stereo not drawn) [compound 142, N-(7-Bicyclo[2.2.1]heptanyl-methyl)-2-[3-(4-fluorophenyl)-propylsulfanyl]-pyridine-3-carboxylic acid amide], for which the EC50 came to 97 nM and the Emax turned out to be 260%.
Consider `O=C(NCc1ccccn1)c1cccnc1SCCCc1ccc(F)cc1` [compound 143], for which the EC50 is 1510 nM and the “Fluorimetry % efficacy” value was 175%.
Regarding `O=C(NCc1nccs1)c1cccnc1SCCCc1ccc(F)cc1` [compound 144, 2-[3-(4-Fluorophenyl)-propylsulfanyl]-N-(thiazol-2-yl-methyl)-pyridine-3-carboxylic acid amide], the EC50 was 815 nM and the Emax was 215%.
With `O=C(NCc1cncs1)c1cccnc1SCCCc1ccc(F)cc1` [compound 145, 2-[3-(4-Fluorophenyl)-propylsulfanyl]-N-(thiazol-5-yl-methyl)-pyridine-3-carboxylic acid amide], it took 1490 nM to reach a half-maximal effect (EC50) and the Emax was 174%.
For the molecule `O=C(NCc1ncco1)c1cccnc1SCCCc1ccc(F)cc1` [compound 146, 2-[3-(4-Fluorophenyl)-propylsulfanyl]-N-(oxazol-2-yl-methyl)-pyridine-3-carboxylic acid amide], the EC50 was 2550 nM and the Emax stood at 193%.
For `Cc1ccnc(SCCCc2ccc(F)cc2)c1C(=O)NCc1cccs1` [compound 147], the “Fluorimetry % efficacy” value is 34%.
Regarding `Cc1ccnc(SCCCc2ccc(F)cc2)c1C(=O)NCCC(C)(C)C` [compound 148, N-(3,3-Dimethyl-butyl)-2-[3-(4-fluorophenyl)-propylsulfanyl]-4-methyl-pyridine-3-carboxylic acid amide], the EC50 came out at 1960 nM and the Emax amounted to 85%.
Regarding `CC(CCc1cccc(C(F)(F)F)c1)Sc1ncccc1C(=O)NCCC(C)(C)C` (stereo not drawn) [compound 149, N-(3,3-Dimethyl-butyl)-2-[[1-methyl-3-[3-(trifluoromethyl)phenyl]-propyl]sulfanyl]-pyridine-3-carboxylic acid amide], the response was half-maximal at 93 nM (EC50) and the Emax stood at 181%.
The like results for `O=C(NCc1ccc2cccnc2c1)c1cccnc1SCCCc1ccc(F)cc1` [compound 150, 2-[3-(4-Fluorophenyl)-propylsulfanyl]-N-(quinolin-7-yl-methyl)-pyridine-3-carboxylic acid amide] were, in that order, 1490 nM and 96%.
In the case of `O=C(NCc1cccc(-c2ccccn2)c1)c1cccnc1SCCCc1ccc(F)cc1` [compound 151, 2-[3-(4-Fluorophenyl)-propylsulfanyl]-N-[(3-pyridin-2-yl-phenyl)-methyl]-pyridine-3-carboxylic acid amide], the half-maximal effective concentration (EC50) is 667 nM and the Emax turned out to be 95%.
Take `O=C(NCc1cccc(-c2cccnc2)c1)c1cccnc1SCCCc1ccc(F)cc1` [compound 152, 2-[3-(4-Fluorophenyl)-propylsulfanyl]-N-[(3-pyridin-3-yl-phenyl)-methyl]-pyridine-3-carboxylic acid amide]: the midpoint of the response, the EC50, lay at 1290 nM and the Emax worked out at 89%.
Turning to `C[C@H](CCc1ccccc1)Sc1ncccc1C(=O)NCCC(C)(C)C` [compound 153, N-(3,3-Dimethyl-butyl)-2-[[(1R)-1-methyl-3-phenyl-propyl]sulfanyl]-pyridine-3-carboxylic acid amide], a half-maximal response (EC50) required 1250 nM and the Emax is 155%.
Consider `C[C@@H](CCc1ccccc1)Sc1ncccc1C(=O)NCCC(C)(C)C` [compound 154, N-(3,3-Dimethyl-butyl)-2-[[(1S)-1-methyl-3-phenyl-propyl]sulfanyl]-pyridine-3-carboxylic acid amide], for which the EC50 worked out at 237 nM and the Emax was 207%.

As a reminder, the EC50 is the concentration giving half of the maximal effect. A higher EC50 goes with lower potency in that assay.

For the origin of these results see patent publication US8586755B2, “Substituted nicotinamides as KCNQ2/3 modulators” (Grünenthal GmbH, priority 2009, dated 2013).
